This is an account of results in US20250295631A1, “NOVEL TREATMENT” (University of Liverpool, priority 2022, published 2025).

For this assay, the system named is ex vivo porcine corneas. Briefly: Ex vivo tensile testing of cross-linked porcine corneas (elastic modulus). Details: species or system domestic pig (Sus domesticus). The protocol:
Eyes of the domestic pig (Sus domesticus) are collected from a local abattoir 0-4 hours post-mortem. Eyes are cleaned of excess tissue and fat and washed in PBS containing 200 U penicillin and 0.2 mg/ml streptomycin and 5 μg/ml amphotericin B (Merch Life Science, Dorset, UK). The eyes are stored in a petri dish containing the PBS antibiotic/antimycotic solution, corneas facing up, at 4° C. overnight.
The porcine eyes are removed from 4° C. and allowed to warm to room temperature. One-to-two drops of Minims Proxymetacaine hydrochloride 0.5% w/v (Bosch & Lomb, Surrey, UK) were applied to the cornea for 15 minutes, with additional drops added ever 5 minutes and then 2-3 minutes before treatment. After which a suction ring (E.Janach, Como, Italy) was attached to the cornea (FIG. 1) and 200 μl of BS^3 solution was added inside the ring. Eyes were incubated for 5, 15 or 30 mins at 37° C.; after which the BS^3 solution was aspirated and retained for pH measurement, and eyes were rinsed in PBS then stored, cornea facing down, in a 6-well plate with fresh PBS until tensile measurement.
Suction rings were applied to porcine corneas as in FIG. 1 and 18% ethanol solution was applied for 30 seconds before being adsorbed by a sponge spear. The cornea was then rinsed with PBS. After this the epithelium was removed with a corneal scraper and sponge spear. Once the epithelium was removed 0.1% riboflavin (Vibex Rapid™, Avedro Inc, MA, USA) was applied every 3 mins. Riboflavin was applied for a total of 30 mins for the Dresden protocol and 15 minutes for the Accelerated protocol.
After riboflavin treatment eyes were cross-linked by UVA light using and KXL System (Avedro Inc). UV light was applied at 3 mW/cm^2 for 30 mins for the Dresden protocol and 6 mW/cm^2 for 15 mins for the Accelerated protocol for a total applied energy of 5.4 J/cm^2 for both protocols.
The anterior section of the eye was removed by cutting around the globe 5-10 mm posteriorly from the limbus. The iris and ciliary process were removed from the posterior section of the tissue leaving only sclera and cornea. A strip of tissue was cut using a custom-made replaceable razor blade jig. Tissue thickness and width (determined as the distance between cutting edges) were measured with calipers.
The tissue strip was mounted in the grips of a Univert tensile tester (CellScale, Ontario, Canada) with a 50 N load cell. Tissue was stretched at a rate of 125 μm/s until failure. Data was captured at 1 Hz. Stress-strain curves were plotted and the elastic modulus was determined at a range of strains: 5-10%, 10-15%, 20-25% and 30-35%. Data were trimmed to 3% from the strain at ultimate tensile strain and 6 term polynomial equations we determined from each curve. […] These polynomials represent the stress-stain response of each cornea and were used to create an average stress-strain curve for the samples.
Ex vivo mechanical data were compared by One-way ANOVA and Tukey's post-hoc.

Where [1] appears, read: Accelerated UV/Riboflavin protocol, strain range 5-10%.
Setting [2] is: Dresden UV/riboflavin protocol, strain range 5-10%.

Where “and” joins values, the source holds several entries; their conditions need not be identical. Identical values can stand only once.

On to `Cc1cc2nc3c(=O)[nH]c(=O)nc-3n(C[C@H](O)[C@H](O)[C@H](O)CO)c2cc1C` [Accelerated, riboflavin, reference compound], for which the “Percentage Change in Modulus Compared to Control” value runs as follows: under setting [1], 79%; (Accelerated UV/riboflavin protocol, strain range 10-15%) 46%; (Accelerated UV/riboflavin protocol, strain range 20-25%) 28%; (Accelerated UV/riboflavin protocol, strain range 30-35%) 16%. Further, under setting [1], the “difference in elastic modulus compared to control” value is “not significantly different”. Under setting [1], the elastic modulus was 5.45±2.97 MPa.
For the molecule `Cc1cc2nc3c(=O)[nH]c(=O)nc-3n(C[C@H](O)[C@H](O)[C@H](O)CO)c2cc1C` [Dresden, riboflavin, reference compound], the “Percentage Change in Modulus Compared to Control” value is, setting by setting: under setting [2], 158%; (Dresden UV/riboflavin protocol, strain range 10-15%) 123% and 124%; (Dresden UV/riboflavin protocol, strain range 20-25%) 62%; (Dresden UV/riboflavin protocol, strain range 30-35%) 34%. Under setting [2], this molecule had an elastic modulus of 7.99±4.58 MPa.
